Data on five compounds can be found in article PMC4138103 (PLoS ONE, 2014).

Each structure is given as a SMILES string. Read-outs that look alike come from different tables or passages of the source.

Series [1] concerns the target T1, human TTR (Homo sapiens, UniProt P02766).
T1 construct: purchased Sigma Aldrich
Briefly: Competition with [125I]-T4 for binding to transthyretin. The note with it: for Relative potency (REP), Exp 1 / Relative potency (REP), Exp 2 / Relative potency (REP), Mean: TTR binding relative to T4; for IC50: TTR binding, [125I]-T4 competition. How it is done: Full dose-response curves within the range of 1–100 nM were determined for each OH-PCB metabolite.

For series [2], the target named is T1, human TTR. The description is as above. The note with it: @100 nM.
For a further series, the system named is HepG2 cells. Also on record: method as in Al-Anati et al., in preparation. The note with it: ref Al-Anati et al., in preparation; cited from earlier work.
The test system of the next series is rats. Also on record: method as in PMID 8935785. The note with it: dietary exposure 90 days; cited from earlier work.
Where [3] appears, read: read-out: IC50, Full dose-resonse experiments, Exp 1.
Where [4] appears, read: read-out: IC50, Full dose-resonse experiments, Exp 2.

Consider `Oc1c(Cl)cc(Cl)c(-c2cc(Cl)c(Cl)c(Cl)c2Cl)c1Cl` [3' OH-PCB 182], for which, on human TTR [1], the “Relative potency (REP), Exp 1” value is 3.68; the “Relative potency (REP), Exp 2” value is 2.68; the “Relative potency (REP), Mean” value stood at 3.18. For the same compound, the IC50 at human TTR [1] (n = 2, read-out: IC50, Mean) came out at 19 nM. The IC50 on human TTR [1] (setting [3]) turned out to be 17.4 nM. For the same compound, the concentration for half-maximal inhibition (IC50) on human TTR [1] (setting [4]) was found to be 20.5 nM. Moreover, the “T4 displacement, Pilot experiment” value on human TTR [2] is given as 93% T4 displacement @100 nM.

For `Oc1c(Cl)c(Cl)cc(-c2cc(Cl)c(Cl)c(Cl)c2Cl)c1Cl` [3'-OH-PCB 180], at human TTR [1], the “Relative potency (REP), Exp 1” value came to 3.96. For the same compound, the “Relative potency (REP), Exp 2” value at human TTR [1] is on record as 2.84. The “Relative potency (REP), Mean” value at human TTR [1] amounted to 3.40. For the same compound, the IC50 on human TTR [1] (n = 2, read-out: IC50, Mean) turned out to be 17.8 nM; at human TTR [1] (setting [3]), 16.2 nM; on human TTR [1] (setting [4]), 19.4 nM. Further, the “T4 displacement, Pilot experiment” value on human TTR [2] stood at 95% T4 displacement @100 nM. Also, the “Expression of DNA damage markers pChk1Ser317 and γH2AXSer319” value with HepG2 cells is “induced”.

On to `Oc1c(Cl)cc(-c2cc(Cl)c(Cl)c(Cl)c2Cl)c(Cl)c1Cl` [4'-OH-PCB 172], for which, at human TTR [1], the “Relative potency (REP), Exp 1” value was found to be 5.37; the “Relative potency (REP), Exp 2” value came to 3.90; the “Relative potency (REP), Mean” value was 4.64. The IC50 on human TTR [1] (n = 2, read-out: IC50, Mean) was 13 nM. In addition, on human TTR [1] (setting [3]), the IC50 is 11.9 nM. On human TTR [1] (setting [4]), the IC50 was 14.1 nM. Moreover, the “T4 displacement, Pilot experiment” value on human TTR [2] was determined as 95% T4 displacement @100 nM.

For `Oc1c(Cl)c(Cl)c(Cl)c(-c2cc(Cl)c(Cl)cc2Cl)c1Cl` [5-OH-PCB 183], at human TTR [1], the “Relative potency (REP), Exp 1” value worked out at 3.54; the “Relative potency (REP), Exp 2” value is reported as 2.61; the “Relative potency (REP), Mean” value is listed as 3.08. Further, the IC50 on human TTR [1] (n = 2, read-out: IC50, Mean) is 19.6 nM. The IC50 on human TTR [1] (setting [3]) worked out at 18.1 nM. The concentration for half-maximal inhibition (IC50) at human TTR [1] (setting [4]) is 21.1 nM. The “T4 displacement, Pilot experiment” value on human TTR [2] is given as 92% T4 displacement @100 nM.

Consider `Clc1cc(Cl)c(-c2cc(Cl)c(Cl)cc2Cl)cc1Cl` [PCB 153, 2,2′,4,4′,5,5′-hexachlorobiphenyl], for which, in the series with rats, the NOAEL is reported as 0.5 mg/kg diet; the “NOAEL, equivalent daily dose” value was 34 µg/kg bw/day; the “NOAEL, equivalent total dose” value is reported as 3.1 mg/kg bw.

For orientation: IC50 means the concentration needed to halve the response being measured. Usually NOAEL stands for the highest dose or exposure tested at which no adverse effect was seen.
